target: SYK (Homo sapiens, UniProt P43405); assay: SYK inhibition assay: SYK-mediated phosphorylation of FAM-labeled substrate (Caliper microfluidic); assay type: biochemical; settings: SYK kinase domain (residues 356-635); 5FAM-KKKKEEIYFFFG-NH2 substrate; ATP; RT 60 min; pIC50 = -log(IC50), IC50 molar

With `N[C@H]1COCC[C@H]1Nc1nc(-c2cnn(C(F)F)c2)c2c(c1F)CNC2=O` [Example 93, 6-((3R,4R)-3-Aminotetrahydro-2H-pyran-4-ylamino)-4-(1-(difluoromethyl)-1H-pyrazol-4-yl)-7-fluoro-1H-pyrrolo[3,4-c]pyridin-3(2H)-one] the “SYK Inhibition (pIC50)” value was 8.0.

same assay, conditions: read-out: SYK Inhibition (pIC50) (converted)

Point of comparison: `N[C@H]1CCCC[C@H]1Nc1nc2c(c(-c3cnn(-c4ccc(F)cc4)c3)n1)C(=O)NC2` [Example 100, 2-((1R,2S)-2-Aminocyclohexylamino)-4-(1-(4-fluorophenyl)-1H-pyrazol-4-yl)-6,7-dihydro-5H-pyrrolo[3,4-d]pyrimidin-5-one], IC50 158 nM. Against it:
- Cc1cccc(Nc2nc(N[C@@H]3CCCC[C@@H]3N)c(-c3ccccc3)c3c2C(=O)NC3)c1 [Example 87] — 2.5-fold lower, 63.1 nM
- Cc1cccc(Nc2nc(N[C@@H]3CCOC[C@@H]3N)c(F)c3c2C(=O)NC3)c1 [Example 89, 6-((3R,4R)-3-Aminotetrahydro-2H-pyran-4-ylamino)-7-fluoro-4-(m-tolylamino)-1H-pyrrolo[3,4-c]pyridin-3(2H)-one] — 40-fold lower, 3.98 nM
- Cc1c(N[C@@H]2CCCC[C@@H]2N)nc(-c2cnn(C)c2)c2c1CNC2=O [Example 90, 6-((1R,2S)-2-Aminocyclohexylamino)-7-methyl-4-(1-methyl-1H-pyrazol-4-yl)-1H-pyrrolo[3,4-c]pyridin-3(2H)-one] — 16-fold lower, 10 nM
- COC[C@H](N)CNc1cc2c(c(-c3cnn(C)c3)n1)C(=O)NC2 [Example 91, (R)-6-(2-Amino-3-methoxypropylamino)-4-(1-methyl-1H-pyrazol-4-yl)-1H-pyrrolo[3,4-c]pyridin-3(2H)-one] — 1.6-fold higher, 251 nM
- N[C@H]1COCC[C@H]1Nc1nc(-c2cnn3ccccc23)c2c(c1F)CNC2=O [Example 92, 6-((3R,4R)-3-Aminotetrahydro-2H-pyran-4-ylamino)-7-fluoro-4-(pyrazolo[1,5-a]pyridin-3-yl)-1H-pyrrolo[3,4-c]pyridin-3(2H)-one] — 13-fold lower, 12.6 nM
- N[C@H]1COCC[C@H]1Nc1nc(-c2coc3ccccc23)c2c(c1F)CNC2=O [Example 94, 6-((3R,4R)-3-Aminotetrahydro-2H-pyran-4-ylamino)-4-(benzofuran-3-yl)-7-fluoro-1H-pyrrolo[3,4-c]pyridin-3(2H)-one] — 50-fold lower, 3.16 nM
- Cn1cc(-c2nc(N3CC[C@H](N)C3)c(F)c3c2C(=O)NC3)cn1 [Example 95, (S)-6-(3-Aminopyrrolidin-1-yl)-7-fluoro-4-(1-methyl-1H-pyrazol-4-yl)-1H-pyrrolo[3,4-c]pyridin-3(2H)-one] — 25-fold higher, 3980 nM
- Cn1cc(-c2nc(N3CCC[C@H](N)C3)c(F)c3c2C(=O)NC3)cn1 [Example 96, (S)-6-(3-Aminopiperidin-1-yl)-7-fluoro-4-(1-methyl-1H-pyrazol-4-yl)-1H-pyrrolo[3,4-c]pyridin-3(2H)-one] — within 1.5-fold, 200 nM
- CC(C)n1cc(-c2nc(N[C@@H]3CCCC[C@@H]3N)c(F)c3c2C(=O)NC3)cn1 [Example 97, 6-((1R,2S)-2-Aminocyclohexylamino)-7-fluoro-4-(1-isopropyl-1H-pyrazol-4-yl)-1H-pyrrolo[3,4-c]pyridin-3(2H)-one] — the same, 158 nM
- Cn1cc(-c2nc(-c3cnn(C)c3)c3c(c2F)CNC3=O)cn1 [Example 98, 7-Fluoro-4,6-bis(1-methyl-1H-pyrazol-4-yl)-1H-pyrrolo[3,4-c]pyridin-3(2H)one] — 13-fold higher, 2000 nM
- Cn1cc(-c2nc(N[C@@H]3CCCC[C@@H]3N)c(Br)c3c2C(=O)NC3)cn1 [Example 99, 6-((1R,2S)-2-Aminocyclohexylamino)-7-bromo-4-(1-methyl-1H-pyrazol-4-yl)-1H-pyrrolo[3,4-c]pyridin-3(2H)-one] — 50-fold lower, 3.16 nM
- COC[C@H](N)CNc1nc(-c2cnn(C)c2)c2c(c1F)CNC2=O [Example 101, (R)-6-(2-Amino-3-methoxypropylamino)-7-fluoro-4-(1-methyl-1H-pyrazol-4-yl)-1H-pyrrolo[3,4-c]pyridin-3(2H)-one] — 2.5-fold lower, 63.1 nM
- N[C@H]1COCC[C@H]1Nc1nc(-c2ccsc2)c2c(c1F)CNC2=O [Example 103, 6-((3R,4R)-3-Aminotetrahydro-2H-pyran-4-ylamino)-7-fluoro-4-(thiophen-3-yl)-1H-pyrrolo[3,4-c]pyridin-3(2H)-one] — within 1.5-fold, 126 nM
- Cc1csc(-c2nc(N[C@@H]3CCOC[C@@H]3N)c(F)c3c2C(=O)NC3)c1 [Example 104, 6-((3R,4R)-3-Aminotetrahydro-2H-pyran-4-ylamino)-7-fluoro-4-(4-methylthiophen-2-yl)-1H-pyrrolo[3,4-c]pyridin-3(2H)-one] — 79-fold lower, 2 nM
- Cc1csc(-c2nc(N[C@@H]3CCCC[C@@H]3N)c(F)c3c2C(=O)NC3)c1 [Example 105, 6-((1R,2S)-2-Aminocyclohexylamino)-7-fluoro-4-(4-methylthiophen-2-yl)-1H-pyrrolo[3,4-c]pyridin-3(2H)-one] — 160-fold lower, 1 nM
- N[C@H]1CCCC[C@H]1Nc1nc(-c2ccsc2)c2c(c1F)CNC2=O [Example 106, 6-((1R,2S)-2-Aminocyclohexylamino)-7-fluoro-4-(thiophen-3-yl)-1H-pyrrolo[3,4-c]pyridin-3(2H)-one] — 63-fold lower, 2.51 nM
- CNC(=O)[C@@H](CC(C)C)Nc1nc(-c2cnn(C)c2)c2c(c1F)CNC2=O [Example 107, (R)-2-(7-Fluoro-4-(1-methyl-1H-pyrazol-4-yl)-3-oxo-2,3-dihydro-1H-pyrrolo[3,4-c]pyridin-6-ylamino)-N,4-dimethylpentanamide] — 3.2-fold higher, 501 nM
- Cc1ccc(-c2nc(N[C@@H]3CCCC[C@@H]3N)c(F)c3c2C(=O)NC3)s1 [Example 108, 6-((1R,2S)-2-Aminocyclohexylamino)-7-fluoro-4-(5-methylthiophen-2-yl)-1H-pyrrolo[3,4-c]pyridin-3(2H)-one] — 63-fold lower, 2.51 nM
- Cc1csc(-c2nc(N[C@H](CC(C)C)C(N)=O)c(F)c3c2C(=O)NC3)c1 [Example 109, (R)-2-(7-Fluoro-4-(4-methylthiophen-2-yl)-3-oxo-2,3-dihydro-1H-pyrrolo[3,4-c]pyridin-6-ylamino)-4-methylpentanamide] — 50-fold lower, 3.16 nM
- CC(C)C[C@@H](Nc1nc(-c2ccsc2)c2c(c1F)CNC2=O)C(N)=O [Example 110, (R)-2-(7-Fluoro-3-oxo-4-(thiophen-3-yl)-2,3-dihydro-1H-pyrrolo[3,4-c]pyridin-6-ylamino)-4-methylpentanamide] — 3.2-fold lower, 50.1 nM
- Cc1ccc(-c2nc(N[C@H](CC(C)C)C(N)=O)c(F)c3c2C(=O)NC3)s1 [Example 111, (R)-2-(7-Fluoro-4-(5-methylthiophen-2-yl)-3-oxo-2,3-dihydro-1H-pyrrolo[3,4-c]pyridin-6-ylamino)-4-methylpentanamide] — 20-fold lower, 7.94 nM
- Nc1ncc(-c2nc(N[C@@H]3CCCC[C@@H]3N)c(F)c3c2C(=O)NC3)s1 [Example 112, 6-((1R,2S)-2-Aminocyclohexylamino)-4-(2-aminothiazol-5-yl)-7-fluoro-1H-pyrrolo[3,4-c]pyridin-3(2H)-one] — 79-fold lower, 2 nM
- CC(C)C[C@@H](Nc1nc(-c2ccco2)c2c(c1F)CNC2=O)C(N)=O [Example 113, (R)-2-(7-Fluoro-4-(furan-2-yl)-3-oxo-2,3-dihydro-1H-pyrrolo[3,4-c]pyridin-6-ylamino)-4-methylpentanamide] — within 1.5-fold, 200 nM
- CC(C)C[C@@H](Nc1nc(-c2ccoc2)c2c(c1F)CNC2=O)C(N)=O [Example 114, (R)-2-(7-Fluoro-4-(furan-3-yl)-3-oxo-2,3-dihydro-1H-pyrrolo[3,4-c]pyridin-6-ylamino)-4-methylpentanamide] — 1.6-fold higher, 251 nM
- Cc1ccc(-c2nc(N[C@H](CC(C)C)C(N)=O)c(F)c3c2C(=O)NC3)o1 [Example 115, (R)-2-(7-Fluoro-4-(5-methylfuran-2-yl)-3-oxo-2,3-dihydro-1H-pyrrolo[3,4-c]pyridin-6-ylamino)-4-methylpentanamide] — 2-fold higher, 316 nM
- CC(C)C[C@@H](Nc1nc(-c2ccc(C#N)s2)c2c(c1F)CNC2=O)C(N)=O [Example 116, (R)-2-(4-(5-Cyanothiophen-2-yl)-7-fluoro-3-oxo-2,3-dihydro-1H-pyrrolo[3,4-c]pyridin-6-ylamino)-4-methylpentanamide] — 20-fold lower, 7.94 nM
- CC(C)C[C@@H](Nc1nc(-c2cc(C#N)cs2)c2c(c1F)CNC2=O)C(N)=O [Example 117, (R)-2-(4-(4-Cyanothiophen-2-yl)-7-fluoro-3-oxo-2,3-dihydro-1H-pyrrolo[3,4-c]pyridin-6-ylamino)-4-methylpentanamide] — 13-fold lower, 12.6 nM
- CC(C)C[C@@H](Nc1nc(-c2cncs2)c2c(c1F)CNC2=O)C(N)=O [Example 118, (R)-2-(7-Fluoro-3-oxo-4-(thiazol-5-yl)-2,3-dihydro-1H-pyrrolo[3,4-c]pyridin-6-ylamino)-4-methylpentanamide] — 13-fold lower, 12.6 nM
- CC(C)C[C@@H](Nc1nc(-c2ccns2)c2c(c1F)CNC2=O)C(N)=O [Example 119, (R)-2-(7-Fluoro-4-(isothiazol-5-yl)-3-oxo-2,3-dihydro-1H-pyrrolo[3,4-c]pyridin-6-ylamino)-4-methylpentanamide] — 10-fold lower, 15.8 nM
- Cn1cc(-c2nc(N[C@@H]3CCCC[C@@H]3N)c(F)c3c2C(=O)NC3(C)C)cn1 [Example 120, 6-((1R,2S)-2-Aminocyclohexylamino)-7-fluoro-1,1-dimethyl-4-(1-methyl-1H-pyrazol-4-yl)-1H-pyrrolo[3,4-c]pyridin-3(2H)-one] — 1.6-fold higher, 251 nM
- Cn1ccc(-c2nc(N[C@@H]3CCCC[C@@H]3N)c(F)c3c2C(=O)NC3)n1 [Example 121] — 25-fold higher, 3980 nM
- Cc1ncc(-c2nc(N[C@@H]3CCCC[C@@H]3N)c(F)c3c2C(=O)NC3)s1 [Example 122, 6-((1R,2S)-2-Aminocyclohexylamino)-7-fluoro-4-(2-methylthiazol-5-yl)-1H-pyrrolo[3,4-c]pyridin-3(2H)-one] — 4-fold higher, 631 nM
- Cc1ccc(-c2nc(N[C@@H]3CCOC[C@@H]3N)c(F)c3c2C(=O)NC3)s1 [Example 123, 6-((3R,4R)-3-Aminotetrahydro-2H-pyran-4-ylamino)-7-fluoro-4-(5-methylthiophen-2-yl)-1H-pyrrolo[3,4-c]pyridin-3(2H)-one] — 20-fold lower, 7.94 nM
- CC1NC(=O)c2c(-c3cnn(C)c3)nc(N[C@@H]3CCCC[C@@H]3N)c(F)c21 (stereo partly drawn) [Example 124, 6-((1R,2S)-2-Aminocyclohexylamino)-7-fluoro-1-methyl-4-(1-methyl-1H-pyrazol-4-yl)-1H-pyrrolo[3,4-c]pyridin-3(2H)-one] — 6.3-fold lower, 25.1 nM

Source: patent US9181255B2, “Fused heteroaromatic pyrrolidinones as SYK inhibitors” (Takeda Pharmaceutical Company Limited, priority 2009, dated 2015)
